Source: publication PMC12510601, “Transcriptomic analysis reveals that pyruvate kinase potentially plays a key role in the differentiation of Spirometra mansoni proglottids by regulating the glycolysis pathway” (PLOS Neglected Tropical Diseases, 2025)

System: rSmPK1 (recombinant SmPK1)
Assay: […],4-dinitrophenylhydrazine pyruvate assay, Michaelis-Menten / Lineweaver-Burk
Format: biochemical, Spirometra mansoni
Conditions: pH 8.0, 37 °C

Row | SMILES | Km (varied ADP with PEP) | Km (varied PEP with ADP)
1 | Nc1ncnc2c1ncn2[C@@H]1O[C@H](COP(=O)(O)OP(=O)(O)O)[C@@H](O)[C@H]1O [ADP] | 540 µM | 
2 | C=C(OP(=O)(O)O)C(=O)O [PEP] |  | 1270 µM
